Patent US20230372273A1, “IONIC LIQUID COMPOSITIONS FOR SKIN DISEASES AND CONDITIONS” (CAGE BIO, INC., priority 2020, published 2023)
pIC50: −log10 of the molar value.

Experiments:
[1] = Human cadaver skin permeation (Franz cells); assay type: in vitro ADME
Method: Human cadaver skin permeation evaluation. Dermatomed full thickness human cadaver skin samples, 250-350 μm, were mounted onto static Franz cells. […] Phosphate buffered saline (PBS), pH 7.4 was used as the receptor medium. CGB400 gel was applied to the stratum corneum side of the skin samples at a dose of 15 μL/cm^2 ( 15 mg/cm^2). The cells were kept in a chamber at 37 C for a period of 24 h. […] in the receptor chamber ensured that the receptor media was well mixed during this time. The receptor media was sampled at 4, 7, and 24 hours to quantify the amount of choline and geranic acid permeation. After 24 hours, the skin surface was washed before removing the stratum corneum (SC) by tape stripping. […] Following SC removal, the epidermis was separated from the dermis using a surgical sterile scalpel and the dermis was cut into pieces. Each layer was collected separately in glass vials containing 2 mL of 50:50 water:methanol mixture and was left to shake overnight to extract the choline and geranic acid. The amount of choline and geranic acid was measured using LC-MS/MS in the wash, epidermis, dermis, and the receptor medium.

Recombinant human KLK5 = molecular target: T1, Recombinant human KLK5 (Homo sapiens, UniProt Q9Y337); assay: hKLK5 enzymatic assay; assay type: biochemical; settings: substrate S-2288, OD 405 nm, 37° C.; read-out: IC50 against hKLK5
T1 construct: purchased Speed Biosystems LLC YS1485
T1 sequence (Q9Y337 23-293): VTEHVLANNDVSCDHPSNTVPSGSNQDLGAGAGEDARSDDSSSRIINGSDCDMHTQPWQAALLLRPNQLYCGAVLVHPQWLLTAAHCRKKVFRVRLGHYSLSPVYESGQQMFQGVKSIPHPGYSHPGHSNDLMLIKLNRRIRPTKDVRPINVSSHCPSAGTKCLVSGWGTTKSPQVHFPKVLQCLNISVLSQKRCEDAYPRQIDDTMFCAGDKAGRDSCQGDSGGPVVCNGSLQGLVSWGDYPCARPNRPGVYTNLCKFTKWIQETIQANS
Method: hKLK5 Enzymatic Assay. Test compound CAGE1:2 (87.07% w/v) was diluted to 0.99 mM and control compound Aprotinin was prepared at 6 μM in di-water. A 2-fold serial dilution was then performed in di-water to generate 10 concentrations for CAGE1:2 (87.07% w/v) and 8 concentrations for Aprotinin which were 2× of the final concentrations in the reaction. Recombinant human KLK5 was purchased from Speed Biosystems LLC (Catalog No. YS1485, Lot No. 0330517, 17.2 μM). The substrate S-2288 was purchased from Diapharma Group, Inc (Catalog No. S820852, Lot No. N0889942).
The assay was carried out in 384-well clear bottom plate coated with 0.1% Tween 20 at 4° C. overnight and washed twice with di-water before usage. 50 μL 2× compound in water was mixed with 25 μL 4× hKLK5 enzyme (120 nM) prepared in 2× reaction buffer (100 mM Tris, pH 8.0, 200 mM NaCl, 0.2% PEG, 0.01% Tween 20, 2 mM EDTA). The enzymatic reaction was initiated by the addition of 25 μL 4× substrate S-2288 (2 mM) in 2× reaction buffer to all wells. OD 405 nm was measured every 30 seconds by SpetraMax 384 Plus at 37° C. for 1 hour.

[2] = test system: Propionibacterium acnes clinical isolates
[3] = cited from earlier work

| Compound | applied dose penetrated into the dermis [1] | estimated epidermal CAGE concentration [1] | molar ratio of choline to geranic acid in the epidermis [1] | pIC50 (Recombinant human KLK5) | effective concentration for antibacterial activity [2] | Minimum Inhibitory Concentration (MIC) ([2]; P. acnes isolates, 48 hours) | Log P [3] |
| --- | --- | --- | --- | --- | --- | --- | --- |
| Choline geranate [CAGE1:2] | About 9.5% | ~76 mM | 1.18 | ~1.52 | < 0.45 mM | 0.025-0.2 % of neat CAGE1:2 | – |
| CC(C)=CCC/C(C)=C/C(=O)O [geranic acid, 3,7-dimethyl-2,6-octadienoic acid] | – | – | – | – | – | – | 2.8 |
